This note sets out measurements from patent publication US8680089B2, “Fused pyridine derivatives” (Xuanzhu Pharma Co., Ltd., priority 2010, dated 2014).

Type in all cases: biochemical
One assay has as its target DPP-IV (Homo sapiens, UniProt P27487). The assay is described as follows: Inhibition to DPP-IV measured by a fluorescence assay (DPPIV-Glo). The note with it: 66 pM DPP-4, pH 7.5, 10 min preincubation at RT, 30 min reaction, 8 concentrations, assayed twice. How it is done: (§1) The preparation of the reaction solution DPPIV-Glo® buffer should be thawed in advance. The freeze-dried […] should be taken out of the refrigerator in advance and left to room temperature. The DPPIV-Glo® substrate was dissolved in 110 μl water, and mixed thoroughly by votex as a stock solution (the concentration is 10 mmol). The […] was added into an ampoule containing 50 mL DPPIV-Glo™ buffer. Then, 100 μl solution containing DPPIV-Glo™ substrate was mixed with 50 mL DPPIV-Glo™ buffer containing a […] to afford the reaction solution, which needs to be stored in a refrigerator at −20° C.
1. The inhibition to DPP-IV was measured by a fluorescence assay:
All of the compounds were 10-fold diluted by DMSO before the experiment, and each compound needs to be diluted to 8 concentrations. Before the experiment, the solution containing DPP-IV enzyme was incubated with the mixture of compounds for 10 min at RT. And then, the reaction solution was added and incubated for 30 min. The enzyme was not added to the negative control group. The fluorescence signal was assayed after 30 min. All of the compounds were assayed twice.

The target in a further assay is DPP-8 (Homo sapiens, UniProt Q6V1X1). The assay is described as follows: Inhibition to DPP-8 measured by a fluorescence assay (DPPIV-Glo). The note with it: 111.9 pM DPP-8, pH 7.5, 10 min preincubation at RT, 30 min reaction, 8 concentrations, assayed twice. How it is done: as §1
2. The inhibition to DPP-8 was measured by a fluorescence assay:
All of the compounds were 10-fold diluted by DMSO before the experiment, and each compound needs to be diluted to 8 concentrations. Before the experiment, the solution containing DPP-8 enzyme was incubated with the mixture of compounds for 10 min at RT. And then, the reaction solution was added and incubated for 30 min. The enzyme was not added to the negative control group. The fluorescence signal was assayed after 30 min. All of the compounds were assayed twice.

The target of the next assay is DPP-9 (Homo sapiens, UniProt Q86TI2). The experiment in a line: Inhibition to DPP-9 measured by a fluorescence assay (DPPIV-Glo). How it is done: as §1
3. The inhibition to DPP-9 was measured by a fluorescence assay:
All of the compounds were 10-fold diluted by DMSO before the experiment, and each compound needs to be diluted to 8 concentrations. Before the experiment, the solution containing DPP-9 enzyme was incubated with the mixture of compounds for 10 min at RT. And then, the reaction solution was added and incubated for 30 min. The enzyme was not added to the negative control group. The fluorescence signal was assayed after 30 min. All of the compounds were assayed twice.

The mark [1] stands for this setting: 26 pM DPP-9, pH 7.5, 10 min preincubation at RT, 30 min reaction, 8 concentrations, assayed twice, read-out: IC50 DPP-9.

Read-outs that look alike come from different tables or passages of the source.

Chain of DPP-IV (P27487 whole entry, species assumed): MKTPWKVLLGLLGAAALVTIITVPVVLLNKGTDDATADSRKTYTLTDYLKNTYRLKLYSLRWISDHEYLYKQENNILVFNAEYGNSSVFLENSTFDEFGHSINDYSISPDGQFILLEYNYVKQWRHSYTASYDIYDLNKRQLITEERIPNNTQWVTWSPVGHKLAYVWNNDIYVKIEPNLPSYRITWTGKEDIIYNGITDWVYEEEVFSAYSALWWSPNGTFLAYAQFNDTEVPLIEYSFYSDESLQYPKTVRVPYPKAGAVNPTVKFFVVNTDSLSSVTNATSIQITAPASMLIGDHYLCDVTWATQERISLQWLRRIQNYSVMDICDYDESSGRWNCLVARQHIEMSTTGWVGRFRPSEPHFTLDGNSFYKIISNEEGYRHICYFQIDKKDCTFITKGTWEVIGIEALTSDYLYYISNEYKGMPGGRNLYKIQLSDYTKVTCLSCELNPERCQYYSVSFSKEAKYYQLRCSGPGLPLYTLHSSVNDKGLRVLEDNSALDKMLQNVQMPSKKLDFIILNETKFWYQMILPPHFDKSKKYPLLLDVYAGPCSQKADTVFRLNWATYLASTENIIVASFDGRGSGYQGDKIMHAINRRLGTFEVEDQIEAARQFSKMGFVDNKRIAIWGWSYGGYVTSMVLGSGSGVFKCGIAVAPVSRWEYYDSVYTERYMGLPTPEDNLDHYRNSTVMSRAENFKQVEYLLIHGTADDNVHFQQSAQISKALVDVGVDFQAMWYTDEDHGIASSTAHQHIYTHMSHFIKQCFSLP
Chain of DPP-8 (Q6V1X1 whole entry, species assumed): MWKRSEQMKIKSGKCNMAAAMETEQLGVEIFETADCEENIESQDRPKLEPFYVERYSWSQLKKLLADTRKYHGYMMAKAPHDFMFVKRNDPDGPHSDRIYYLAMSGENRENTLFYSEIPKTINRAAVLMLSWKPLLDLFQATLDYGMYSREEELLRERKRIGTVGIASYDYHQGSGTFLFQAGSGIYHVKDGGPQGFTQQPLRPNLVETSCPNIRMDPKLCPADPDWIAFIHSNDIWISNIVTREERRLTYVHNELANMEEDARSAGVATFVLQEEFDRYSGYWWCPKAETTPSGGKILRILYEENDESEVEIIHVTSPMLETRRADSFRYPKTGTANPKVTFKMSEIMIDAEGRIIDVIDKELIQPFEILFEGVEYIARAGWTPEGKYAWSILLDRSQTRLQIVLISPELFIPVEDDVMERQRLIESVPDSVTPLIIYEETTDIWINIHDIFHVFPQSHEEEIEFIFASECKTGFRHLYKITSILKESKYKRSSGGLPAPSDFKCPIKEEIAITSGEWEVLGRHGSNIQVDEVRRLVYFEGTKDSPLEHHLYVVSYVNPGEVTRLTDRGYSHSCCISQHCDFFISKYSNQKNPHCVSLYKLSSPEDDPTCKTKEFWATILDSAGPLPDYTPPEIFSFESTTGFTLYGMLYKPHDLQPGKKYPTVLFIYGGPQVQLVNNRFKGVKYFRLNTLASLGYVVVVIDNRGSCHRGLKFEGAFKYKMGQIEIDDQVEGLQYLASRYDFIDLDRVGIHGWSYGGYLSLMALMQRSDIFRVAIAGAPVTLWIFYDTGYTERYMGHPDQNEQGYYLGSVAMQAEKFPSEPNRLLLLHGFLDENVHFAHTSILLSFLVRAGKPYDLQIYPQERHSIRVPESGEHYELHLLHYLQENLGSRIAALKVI
Chain of DPP-9 (Q86TI2 whole entry, species assumed): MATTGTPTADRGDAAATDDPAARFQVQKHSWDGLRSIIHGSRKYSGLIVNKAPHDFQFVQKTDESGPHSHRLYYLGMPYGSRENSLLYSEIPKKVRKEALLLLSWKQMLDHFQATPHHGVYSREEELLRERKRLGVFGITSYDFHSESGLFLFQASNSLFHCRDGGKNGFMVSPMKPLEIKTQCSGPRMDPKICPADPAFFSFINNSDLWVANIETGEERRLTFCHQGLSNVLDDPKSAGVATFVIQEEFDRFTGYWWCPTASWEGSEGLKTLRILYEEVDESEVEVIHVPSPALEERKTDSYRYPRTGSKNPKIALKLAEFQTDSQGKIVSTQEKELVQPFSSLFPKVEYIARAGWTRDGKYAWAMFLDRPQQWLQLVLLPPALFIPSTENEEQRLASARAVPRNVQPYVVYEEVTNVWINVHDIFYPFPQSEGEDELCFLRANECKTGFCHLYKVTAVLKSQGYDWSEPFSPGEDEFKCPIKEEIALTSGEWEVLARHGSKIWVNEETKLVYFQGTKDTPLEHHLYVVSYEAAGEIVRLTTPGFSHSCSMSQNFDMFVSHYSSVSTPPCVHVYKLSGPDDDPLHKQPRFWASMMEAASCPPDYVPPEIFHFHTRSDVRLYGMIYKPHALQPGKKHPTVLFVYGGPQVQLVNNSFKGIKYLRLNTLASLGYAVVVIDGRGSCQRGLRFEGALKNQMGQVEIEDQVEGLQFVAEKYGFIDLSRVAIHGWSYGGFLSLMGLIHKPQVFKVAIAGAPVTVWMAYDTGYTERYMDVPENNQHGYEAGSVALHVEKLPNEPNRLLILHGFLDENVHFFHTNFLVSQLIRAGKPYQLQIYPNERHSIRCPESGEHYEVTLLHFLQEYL

As for `Cn1c(=O)n(Cc2ccccc2C#N)c2c(N3CCC[C@@H](N)C3)cc(C(=O)O)nc21` [Compound 30, (R)-7-(3-aminopiperidin-1-yl)-1-(2-cyanobenzyl)-3-methyl-2-oxo-2,3-dihydro-1H-imidazo[4,5-b]pyridine-5-formylic acid], the IC50 (commonly the concentration needed to halve the response being measured) against DPP-IV is 7.9 nM; on DPP-8 it was greater than 100 µM; on DPP-9 (setting [1]), greater than 100 µM.

As for `N#Cc1ccccc1Cn1c(=O)oc2nccc(N3CCC[C@@H](N)C3)c21` [Compound 11, (R)-2-[[7-(3-aminopiperidin-1-yl)-2-oxo-oxazolo[5,4-b]pyridin-1(2H)-yl]methyl]benzonitrile], the IC50 at DPP-8 and against DPP-9 was greater than 100 µM in each case.

On to `CN(C)c1cc(N2CCC[C@@H](N)C2)c2c(n1)n(C)c(=O)n2Cc1ccccc1C#N` [Compound 23, (R)-2-[[7-(3-aminopiperidin-1-yl)-5-(dimethylamino)-3-methyl-2-oxo-2,3-dihydro-1H-imidazo[4,5-b]pyridin-1-yl]methyl]benzonitrile], for which the IC50 on DPP-IV is 22.9 nM; against DPP-8, greater than 100 µM; at DPP-9 (setting [1]) it was greater than 100 µM.

As to `Cn1c(=O)n(Cc2ccccc2C#N)c2c(N3CC[C@@H](N)C3)ccnc21` [Compound 12, (R)-2-[[7-(3-aminopyrrolidin-1-yl)-3-methyl-2-oxo-2,3-dihydro-1H-imidazo[4,5-b]pyridin-1-yl]methyl]benzonitrile], the IC50 against DPP-8 and against DPP-9 was greater than 100 µM throughout.

For `CCc1cc(N2CCC[C@@H](N)C2)c2c(n1)n(C)c(=O)n2Cc1ccccc1C#N` [Compound 25, (R)-2-[[7-(3-aminopiperidin-1-yl)-5-ethyl-3-methyl-2-oxo-2,3-dihydro-1H-imidazo[4,5-b]pyridin-1-yl]methyl]benzonitrile], the IC50 against DPP-IV was 19.3 nM; against DPP-8, greater than 100 µM; at DPP-9 (setting [1]), greater than 100 µM.

In the case of `Cn1c(=O)n(Cc2ccccc2C#N)c2c(N3CCC[C@@H](N)C3)cc(CO)nc21` [Compound 29, (R)-2-[[7-(3-aminopiperidin-1-yl)-3-methyl-5-hydroxymethyl-2-oxo-2,3-dihydro-1H-imidazo[4,5-b]pyridin-1-yl]methyl]benzonitrile], the concentration for half-maximal inhibition (IC50) against DPP-IV is 13.5 nM; at DPP-8, greater than 100 µM; on DPP-9 (setting [1]) it was greater than 100 µM.

With `Cn1c(=O)n(Cc2ccccc2C#N)c2c(N3CCCCC(N)C3)ccnc21` (centres unmarked) [Compound 15, 2-[[7-(3-aminohomopiperidin-1-yl)-3-methyl-2-oxo-2,3-dihydro-1H-imidazo[4,5-b]pyridin-1-yl]methyl]benzonitrile], the IC50 against DPP-8 and against DPP-9 was greater than 100 µM each time.

On to `Cn1c(=O)n(Cc2ccccc2C#N)c2c(N3CCC[C@@H](N)C3)c3ccccc3nc21` [Compound 18, (R)-2-[[9-(3-aminopiperidin-1-yl)-3-methyl-2-oxo-2,3-dihydro-1H-imidazo[4,5-b]quinolin-1-yl]methyl]benzonitrile], for which the IC50 at DPP-8 and at DPP-9 was greater than 100 µM each time.

For `Cn1c(=O)n(Cc2ccccc2C#N)c2c(N3CCC[C@@H](N)C3)cc(Cl)nc21` [Compound 22], the 50% inhibitory concentration (IC50) against DPP-IV was 10 nM; at DPP-8, greater than 100 µM; at DPP-9 (setting [1]), greater than 100 µM.

`Cn1c(=O)n(Cc2ccccc2Cl)c2c(N3CCC[C@@H](N)C3)ccnc21` [Compound 5, (R)-1-(2-chlorobenzyl)-7-(3-aminopiperidin-1-yl)-3-methyl-1H-imidazo[4,5-b]pyridine-2(3H)-one]: the IC50 against DPP-8 and on DPP-9 was greater than 100 µM throughout.

For the compound `Cn1c(=O)n(Cc2ccccc2F)c2c(N3CCC[C@@H](N)C3)ccnc21` [Compound 3, (R)-1-(2-fluorobenzyl)-7-(3-aminopiperidin-1-yl)-3-methyl-1H-imidazo[4,5-b]pyridin-2(3H)-one], the 50% inhibitory concentration (IC50) at DPP-8 and at DPP-9 was greater than 100 µM throughout.

With `Cn1c(=O)n(Cc2cc(F)ccc2F)c2c(N3CCC[C@@H](N)C3)ccnc21` [Compound 4, (R)-1-(2,5-difluorobenzyl)-7-(3-aminopiperidin-1-yl)-3-methyl-1H-imidazo[4,5-b]pyridine-2(3H)-one], the IC50 against DPP-IV is 545 nM; at DPP-8, greater than 100 µM; at DPP-9 (setting [1]), greater than 100 µM.

Take `Cc1cc(N2CCC[C@@H](N)C2)c2c(n1)n(C)c(=O)n2Cc1ccccc1C#N` [Compound 17, (R)-2-[[7-(3-aminopiperidin-1-yl)-3,5-dimethyl-2-oxo-2,3-dihydro-1H-imidazo[4,5-b]pyridin-1-yl]methyl]benzonitrile]: the concentration for half-maximal inhibition (IC50) at DPP-IV is 8.9 nM; against DPP-8, greater than 100 µM; on DPP-9 (setting [1]) it was greater than 100 µM.

Regarding `CN[C@@H]1CCCN(c2ccnc3c2n(Cc2ccccc2C#N)c(=O)n3C)C1` [Compound 6, (R)-2-[[3-methyl-7-[3-(methylamino)piperidin-1-yl]-2-oxo-2,3-dihydro-1H-imidazo[4,5-b]pyridin-1-yl]methyl]benzonitrile], the concentration for half-maximal inhibition (IC50) at DPP-8 and against DPP-9 was greater than 100 µM each time.

Take `Cn1c(=O)n(Cc2ccccc2C#N)c2c(N3CCC[C@@H](N)C3)ccnc21` [Compound 1, (R)-2-[[7-(3-aminopiperidin-1-yl)-3-methyl-2-oxo-2,3-dihydro-1H-imidazo[4,5-b]pyridin-1-yl]methyl]benzonitrile]: the IC50 against DPP-8 and at DPP-9 was greater than 100 µM each time.

In the case of `N#Cc1ccccc1Cn1c(=O)[nH]c2nccc(N3CCC[C@@H](N)C3)c21` [Compound 19, (R)-2-[[7-(3-aminopiperidin-1-yl)-2-oxo-2,3-dihydro-1H-imidazo[4,5-b]pyridin-1-yl]methyl]benzonitrile], the IC50 on DPP-8 and at DPP-9 was greater than 100 µM in each case.

For the compound `CC(C)n1c(=O)n(Cc2ccccc2C#N)c2c(N3CCC[C@@H](N)C3)ccnc21` [Compound 2, (R)-2-[[7-(3-aminopiperidin-1-yl)-3-isopropyl-2-oxo-2,3-dihydro-1H-imidazo[4,5-b]pyridin-1-yl]methyl]benzonitrile], the IC50 against DPP-8 and on DPP-9 was greater than 100 µM in each case.

Turning to `Cc1cc(N2CC[C@@H](N)C2)c2c(n1)n(C)c(=O)n2Cc1ccccc1C#N` [Compound 21, (R)-2-[[7-(3-aminopyrrolidin-1-yl)-3,5-dimethyl-2-oxo-2,3-dihydro-1H-imidazo[4,5-b]pyridin-1-yl]methyl]benzonitrile], the IC50 is 11.2 nM against DPP-IV, greater than 100 µM against DPP-8 and greater than 100 µM at DPP-9 (setting [1]).

`Cc1cc(N2CCC[C@@H](NCc3ccccc3C#N)C2)c2c(n1)n(C)c(=O)n2Cc1ccccc1C#N` [Compound 31, (R)-7-[3-(2-cyanobenzyl)aminopiperidin-1-yl]-1-(2-cyanobenzyl)-3,5-dimethyl-2-oxo-2,3-dihydro-1H-imidazo[4,5-b]pyridine]: the IC50 against DPP-IV is 422 nM; against DPP-8, greater than 100 µM; on DPP-9 (setting [1]), greater than 100 µM.

`CCn1c(=O)n(Cc2ccccc2C#N)c2c(N3CCC[C@@H](N)C3)cc(C)nc21` [Compound 26, (R)-2-[[7-(3-aminopiperidin-1-yl)-3-ethyl-5-methyl-2-oxo-2,3-dihydro-1H-imidazo[4,5-b]pyridin-1-yl]methyl]benzonitrile]: the half-inhibitory concentration (IC50) is 56.9 nM against DPP-IV, greater than 100 µM at DPP-8 and greater than 100 µM at DPP-9 (setting [1]).
